According to paper doi:10.1101/2025.03.26.645513v1 (biorxiv, 2025):

Assays:
Assay in all cases: acid ninhydrin cysteine assay, A560
SaCysK [1] = target: T1, SaCysK (Staphylococcus aureus, UniProt P63871); assay type: biochemical; settings: substrate inhibition constant, MOPS, 37 °C, no glycerol
T1 sequence (P63871 1-310): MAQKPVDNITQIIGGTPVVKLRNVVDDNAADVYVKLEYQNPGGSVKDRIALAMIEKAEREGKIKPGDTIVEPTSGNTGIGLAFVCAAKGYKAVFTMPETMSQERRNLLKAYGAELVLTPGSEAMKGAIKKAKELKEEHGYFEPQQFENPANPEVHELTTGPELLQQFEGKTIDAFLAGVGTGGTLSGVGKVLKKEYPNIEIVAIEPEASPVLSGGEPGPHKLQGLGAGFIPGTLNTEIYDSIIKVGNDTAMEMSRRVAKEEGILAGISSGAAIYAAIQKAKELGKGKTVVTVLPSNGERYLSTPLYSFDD

NgCysK = NgCysK (Neisseria gonorrhoeae, UniProt Q5F9Q2); settings: read-out: Khalf; 10 mM OAS; MOPS; 37 °C; no glycerol; cooperative
SaCysK [2] = target: T1, SaCysK; settings: 10 mM OAS; MOPS; 37 °C; no glycerol

Chain of NgCysK (Q5F9Q2 1-310): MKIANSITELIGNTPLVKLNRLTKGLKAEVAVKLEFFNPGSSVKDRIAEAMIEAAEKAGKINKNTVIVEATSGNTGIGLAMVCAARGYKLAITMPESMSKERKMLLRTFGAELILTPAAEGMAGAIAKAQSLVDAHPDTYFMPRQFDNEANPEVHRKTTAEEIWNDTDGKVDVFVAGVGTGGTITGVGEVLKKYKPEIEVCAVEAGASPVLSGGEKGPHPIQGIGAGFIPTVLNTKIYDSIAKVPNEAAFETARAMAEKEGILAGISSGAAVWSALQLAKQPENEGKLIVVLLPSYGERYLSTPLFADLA

Ki (SaCysK [1]; 15 mM Na2S) | Compound | Km (NgCysK) | Ki (SaCysK [1]; 10 mM OAS) | Km (SaCysK [2])
6.265 ± 2.489 mM | CC(=O)OC[C@H](N)C(=O)O [O-acetylserine] |  |  | 
 | S [sodium sulfide] | 23.6 ± 10.8 mM | 15.970 ± 12.793 mM | 2.31 ± 3.57 mM
